{"source": "patent EP3064205A1", "about": "“Therapeutic use of isomeric forms of 2-(4-chlorophenyl)quinolin-4-yl)(piperidin-2-yl)methanol” (Glionova AB, priority 2015, dated 2016)", "key": {"[1]": {"assay": "Pharmacokinetic evaluation in mice (plasma and brain)", "assay_type": "in vivo, male NMRI mice", "settings": "for Kp / half-life / Tmax / Cmax: male, NMRI, mouse; for Kp: brain/plasma, single oral administration of 20 mg/kg", "procedure": "Compounds S1 and S2 were formulated at 0.4 mg/mL in 7.5% NMP, 10% Kolliphor in 0.9% NaCl (for i.v. administration) and at 2.0 mg/mL in 0.1% Tween 80, 0.5% Na-CMC in water (for p.o. administration).\nThe pharmacokinetic properties of S1 and S2 were determined in male NMRI mice (Charles River, Germany) following single intravenous (i.v., tail vein, 2 mg/kg) or per oral (p.o, gavage, 20 mg/kg). Light isoflurane anaesthesia was used at i.v. administration, no anaesthesia was used at p.o. administration. Blood samples were kept on ice after sampling and centrigued at +4 °C, 1800 x g for 5 minutes to prepare plasma. Blood and homogenized brain samples were taken from animals at the following nominal time points: 15, 30, and 60 minutes, and 2, 4, 6, 8, 24, 48, 72 and 144 hours after dosing (n=3 samples/time-point). Blood sampling (400-600 microliters) was performed by orbital plexus collection under isoflurane anaesthesia into EDTA plasma tubes (BD Microtainer K2EDTA). Bioanalytical quantification of S1 and S2 was analysed in plasma and brain samples by a UPLC-MS/MS. Pharmacokinetics were calculated by non-compartmental analysis (NCA) from composite (mean) profiles using Phoenix WinNonlin Professional (v 6.3). Nominal sampling times and dose levels have been used for the NCA calculations. All animals dosed with S1 and S2 were systemically exposed to the test compound. The plasma and brain concentrations were detectable and analysed until 144 h.\nBrain sampling was performed after the end of blood sampling at the specified time points following euthanization and skull extraction. Brains were weighed and placed in test tubes and placed on wet ice. 4 mL PBS (pH 7.4) per 1 g of brain tissue was added to the test tube and brains were then homogenized using an Ultra-Turrax T25 homogenisator (Setting 2, 9500 rpm, 10s). The homogenates were frozen at -20° C immediately after homogenization."}, "[2]": {"system": "glioblastoma cell line U3013", "assay": "ATP viability assay (CellTiter-Glo)", "assay_type": "cell-based, human", "procedure": "The human melanoma cell line SK-MEL-28 is a well established reference cell line in melanoma research (Goodfellow M, et al. J. Natl. Cancer Inst. 59: 221-226, 1977). Cells were cultured in MEM supplemented with 10% FCS. Glioblastoma cell line (U3013) was generated directly from patient-derived tumors (Kitambi et al. Cell. 2014: 157(2):313-28) and grown in serum-free media supplemented with N2, B27, EGF, and FGF-2 (20 ng/ml) using previously described methodology (Pollard et al., 2009).\nCulture plates were pre-coated with laminin (Sigma) for 3 hr at 10 ug/ml prior to use and confluent cells were split 1:3 to 1:5 using TrypLE Express (Invitrogen).\n(§1) Viability assay was conducted in 96 well microtiter plates seeded with 3000 cells. Cell viability was measured using CellTiter-Glo assay (Promega), according to the manufacturer's instructions. Luminescence was measured using Victor3 FA (Perkin Elmer) microtiter plate reader. Total luminescence was normalized relative to negative control and curve fitting performed using GraphPad Prism (v6.02) software. IC50 was determined using Cell Viability assay, and data was illustrated using GraphPad Prism (version 6.02)"}, "KPC cells": {"system": "KPC cells", "assay": "ATP viability assay (CellTiter-Glo), 3D culture, automatic drug screen", "assay_type": "cell-based, mouse", "settings": "72h", "procedure": "Panc-1, HPAF II, KPC pancreatic adenocarcinoma cell lines were trypsin-treated and counted using the Casy Cell Counter according to the manufacturer's recommendations (GmbH). Subsequently, they were seeded onto round bottom non-tissue culture treated 96 well-plates (Falcon, BD NJ, USA) at a concentration of 2500 cells/well in 100 µl DMEM-F12 or phenol red-free DMEM-F12 medium, containing 10% FCS and supplemented with 20% methyl cellulose stock solution. For preparation of methylcellulose stock solution, 6 grams of methylcellulose powder (M0512, Sigma-Aldrich) was autoclaved in a 500 ml flask containing a magnetic stirrer (the methylcellulose powder is resistant to this procedure). The autoclaved methylcellulose was dissolved in preheated 250 ml basal medium (60°C) for 20 min (using the magnetic stirrer). Thereafter, 250 ml medium (room temperature) containing double amount of FCS (20%) was added to a final volume of 500 ml and the whole solution mixed overnight at 4°C. The final stock solution was aliquoted and cleared by centrifugation (5000g, 2 h, room temperature). […]\nIn order to confirm the results presented in figure 1, S1 was further tested in 2 different cell lines in 3D culture format, using an automatic drug screening assay. The effect of Vacquinol-1 RS (S1) on cell viability was measured after 72h using the CellTiter-Glo assay (Promega) adapted for 3D culture."}, "MIA-PaCa-2 cell line": {"system": "MIA-PaCa-2 cell line", "assay": "ATP viability assay (CellTiter-Glo)", "assay_type": "cell-based", "settings": "Homo sapiens; MIA-PaCa-2 (RAS mutation); at 24h, 48h and 72h", "excerpt": "(§2) The following well-characterized human pancreatic ductal adenocarcinoma cell lines (ATCC) were used: HPAF II, BxPC-3, MIA-PaCa2 and Panc-1. These cell lines were generated from patient-derived tumors and are widely used model system to study pancreatic cancer (HPAF II: Kim YW, et al. Pancreas 4: 353-362, 1989; BxPC-3: Tan MH, et al. Cancer Invest. 4: 15-23, 1986; MIA-PaCa2: Yunis AA, et al. Int. J. Cancer 19: 128-135, 1977; Pacn-1: Lieber M, et al. Int. J. Cancer 15: 741-747, 1975).\nas §1"}, "BxPCI-2 cell line": {"system": "BxPCI-2 cell line", "assay": "ATP viability assay (CellTiter-Glo)", "assay_type": "cell-based", "settings": "Homo sapiens; BxPCI-2 (wild type RAS); at 24h, 48h and 72h", "excerpt": "as §2, §1"}}, "note": "“Also recorded” adds a separate entry of the source. Read-outs that look alike come from different tables or passages of the source.", "data": [{"compound": "O[C@H](c1cc(-c2ccc(Cl)cc2)nc2ccccc12)[C@@H]1CCCCN1", "note": "[S1, (R)-(2-(4-chlorophenyl)quinolin-4-yl)((S)-piperidin-2-yl)methanol]", "values": [{"measurement": "Brain AUC last", "setting": "[1]; brain, i.v., 2 mg/kg", "result": 52.7, "unit": "µg·h/mL"}, {"measurement": "Brain Cmax", "setting": "[1]; brain, i.v., 2 mg/kg", "result": 1970, "unit": "ng/mL"}, {"measurement": "Brain tlast", "setting": "[1]; brain, i.v., 2 mg/kg", "result": 144, "unit": "h"}, {"measurement": "Brain AUC last", "setting": "[1]; brain, p.o., 20 mg/kg", "result": 400, "unit": "µg·h/mL"}, {"measurement": "Brain Cmax", "setting": "[1]; brain, p.o., 20 mg/kg", "result": 4840, "unit": "ng/mL"}, {"measurement": "Brain tlast", "setting": "[1]; brain, p.o., 20 mg/kg", "result": 144, "unit": "h"}, {"measurement": "Kp", "setting": "[1]; po, 20 mg/kg, read-out: exposure ratio AUC(brain/plasma)", "result": 1.6}, {"measurement": "Kp", "setting": "[1]; po, 20 mg/kg, read-out: exposure ratio Cmax(brain/plasma)", "result": 2.2}, {"measurement": "half-life", "setting": "[1]; iv, brain, i.v., 2 mg/kg, read-out: Brain T1/2 (converted)", "result": 67, "unit": "h"}, {"measurement": "Tmax", "setting": "[1]; iv, brain, i.v., 2 mg/kg, read-out: Brain tmax", "result": 0.25, "unit": "h"}, {"measurement": "Cmax", "setting": "[1]; iv, plasma, 2 mg/kg", "result": 775, "unit": "ng/mL"}, {"measurement": "half-life", "setting": "[1]; iv, plasma, i.v., 2 mg/kg, read-out: Plasma T1/2 (converted)", "result": 84, "unit": "h"}, {"measurement": "Tmax", "setting": "[1]; iv, plasma, i.v., 2 mg/kg, read-out: Plasma tmax", "result": 4, "unit": "h"}, {"measurement": "Tmax", "setting": "[1]; po, brain, p.o., 20 mg/kg, read-out: Brain tmax", "result": 8, "unit": "h"}, {"measurement": "Cmax", "setting": "[1]; po, plasma, 20 mg/kg", "result": 2210, "unit": "ng/mL"}, {"measurement": "Tmax", "setting": "[1]; po, plasma, p.o., 20 mg/kg, read-out: Plasma tmax", "result": 4, "unit": "h"}, {"measurement": "Plasma AUC last", "setting": "[1]; plasma, i.v., 2 mg/kg", "result": 62, "unit": "µg·h/mL"}, {"measurement": "Plasma tlast", "setting": "[1]; plasma, i.v., 2 mg/kg", "result": 144, "unit": "h"}, {"measurement": "Plasma AUC last", "setting": "[1]; plasma, p.o., 20 mg/kg", "result": 246, "unit": "µg·h/mL"}, {"measurement": "Plasma tlast", "setting": "[1]; plasma, p.o., 20 mg/kg", "result": 144, "unit": "h"}, {"measurement": "IC50", "setting": "[2]; Homo sapiens, U3013, positive control cell line, 24, 48 and 72 h", "result": "1.9 to 3.5", "unit": "µM"}, {"measurement": "in vitro cytotoxicity, comparison of isolated isomers", "setting": "[2]; U3013, dose response, CellTiterGlo ATP quantification", "result": "S1 and S2 exhibit greater in vitro oncolytic potency than the corresponding S3 and S4 isomers; also recorded: S1 and S2 exhibit higher cytotoxicity on cancer cells than S3 and S4"}, {"measurement": "reduction in viability", "setting": "KPC cells; 10 µM", "result": "~50", "unit": "%"}, {"measurement": "viability compared to control", "setting": "KPC cells; 30-15 µM", "result": "complete loss of viability"}, {"measurement": "IC50", "setting": "MIA-PaCa-2 cell line", "result": "12 to 19", "unit": "µM"}, {"measurement": "IC50", "setting": "BxPCI-2 cell line", "result": "12 to 19", "unit": "µM"}]}]}
